Test results as given in ChEMBL document CHEMBL1201862, “PubChem BioAssay data set” (2004).
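Tested at 5 concentrations; 48 h exposure; 96-well plates; endpoints linearly interpolated, else capped at highest concentration. GI50 is the concentration that inhibits growth by half.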 Active and inactive are the calls of the source. No stated cut-off is given here; in the data, active = GI50 up to about 1.1 µM and inactive = higher.

Legend:
Experiment in all cases: growth of human tumour cells (NCI), 48 h
786-0 = tested on: 786-0
DU-145 = tested on: DU-145
EKVX = tested on: EKVX
HCT-116 = tested on: HCT-116
HCT-15 = tested on: HCT-15
HL-60 = tested on: HL-60
HOP-62 = tested on: HOP-62
MCF7 = tested on: MCF7
MDA-MB-435 = tested on: MDA-MB-435
Malme-3M = tested on: Malme-3M
NCI-H226 = tested on: NCI-H226
NCI-H23 = tested on: NCI-H23
RPMI-8226 = tested on: RPMI-8226
RXF 393 = tested on: RXF 393
SF-268 = tested on: SF-268
SF-295 = tested on: SF-295
SK-OV-3 = tested on: SK-OV-3
SNB-19 = tested on: SNB-19
SW-620 = tested on: SW-620
MDA-MB-231 = tested on: MDA-MB-231

Measured: GI50

Cc1ccc2[nH]c3[nH]c(=O)[nH]c(=O)c3c2c1
inactive: 786-0 > 100 µM | DU-145 > 100 µM | EKVX > 100 µM | HCT-116 > 100 µM | HL-60 > 100 µM | HOP-62 > 100 µM | MCF7 > 100 µM | MDA-MB-435 > 100 µM | Malme-3M > 100 µM | NCI-H226 > 100 µM | NCI-H23 > 100 µM | RPMI-8226 > 100 µM | RXF 393 > 100 µM | SF-268 > 100 µM | SF-295 58.3 µM | SK-OV-3 > 100 µM | SNB-19 > 100 µM | SW-620 > 100 µM
> 100 µM: HCT-15

C[S+](C)C1(c2ccccc2)C(=O)c2ccccc2C1=O
inactive: 786-0 > 100 µM | DU-145 > 100 µM | EKVX 34 µM | HCT-116 > 54.3 µM | HL-60 > 31.6 µM | HOP-62 > 56.9 µM | MCF7 > 100 µM | MDA-MB-435 42.6 µM | Malme-3M > 100 µM | NCI-H226 48 µM | NCI-H23 > 65.9 µM | RPMI-8226 > 62.1 µM | RXF 393 33.3 µM | SF-268 60.3 µM | SF-295 36.1 µM | SK-OV-3 > 100 µM | SNB-19 39 µM | SW-620 > 100 µM
> 51.1 µM: HCT-15

C/C=C\C(CC(=O)NCCC1CN(C(=O)OCc2ccccc2)c2ccccc21)CC(=O)OC (configuration not stated)
> 100 µM: HCT-15
inactive: 786-0 > 100 µM | DU-145 > 100 µM | EKVX > 100 µM | HCT-116 > 100 µM | HOP-62 > 100 µM | MCF7 > 100 µM | MDA-MB-231 > 100 µM | MDA-MB-435 > 100 µM | Malme-3M > 100 µM | NCI-H23 > 100 µM | RPMI-8226 79.4 µM | RXF 393 > 100 µM | SF-268 > 100 µM | SF-295 > 100 µM | SK-OV-3 > 100 µM | SNB-19 > 100 µM | SW-620 > 100 µM

Cc1cc(-c2[nH]c(C(=O)O)cc2I)on1
> 100 µM: HCT-15
inactive: 786-0 36.6 µM | DU-145 > 100 µM | EKVX 51.6 µM | HCT-116 42 µM | HOP-62 26.9 µM | MCF7 > 100 µM | MDA-MB-231 75.2 µM | MDA-MB-435 > 100 µM | Malme-3M > 100 µM | NCI-H23 51.2 µM | RPMI-8226 > 100 µM | RXF 393 24 µM | SF-268 68.7 µM | SF-295 33.7 µM | SK-OV-3 76 µM | SNB-19 31 µM | SW-620 > 100 µM

Cc1ccc(C(=O)OC(C)C)cc1/N=N/N(C)C
> 100 µM: HCT-15
inactive: 786-0 > 100 µM | DU-145 > 100 µM | EKVX > 100 µM | HCT-116 > 67.9 µM | HL-60 39.8 µM | HOP-62 97.5 µM | MCF7 > 100 µM | MDA-MB-231 > 100 µM | MDA-MB-435 > 100 µM | Malme-3M > 100 µM | NCI-H23 45.3 µM | RPMI-8226 > 100 µM | SF-268 > 68.7 µM | SF-295 58.6 µM | SK-OV-3 > 100 µM | SNB-19 > 69.8 µM | SW-620 > 100 µM
